Results as given in paper PMC10803289, “Transport and inhibition mechanism of the human SGLT2–MAP17 glucose transporter” (Nature Structural & Molecular Biology, 2023).
Where a chain is given by its changes, count along the chain named. “And” between values parts separate entries of the source, which are not always exact repeats. Equal values may be shown once.

Tests used:
[1] = test system: nontransfected Expi293 cells (Mock); assay: Nonspecific binding to crude membrane of nontransfected cells (Mock); set-up: species or system human; conditions: Mock
Protocol: (§1) To examine the inhibition of binding to the crude membrane, mammalian Expi293 cells were co-transfected with the hMAP17 and hSGLT2 plasmids, as described. The cells were collected and disrupted by sonication in a hypotonic buffer (50 mM HEPES–NaOH (pH 7.5), 10 mM KCl and protease inhibitor cocktail) or Na^+-free hypotonic buffer (50 mM Tris–HCl (pH 7.5), 10 mM KCl and protease inhibitor cocktail). The cell debris were removed by centrifugation (2,000g, 5 min, 4 °C). The membrane fraction was collected by ultracentrifugation (112,000g, 30 min, 4 °C) and stored at −80 °C before use. The crude membrane (250 μg per sample) was incubated with SGLT2 inhibitor in an assay buffer (100 mM NaCl and 10 mM HEPES/Tris, pH 7.4) or Na^+-free assay buffer (100 mM choline chloride and 10 mM HEPES/Tris, pH 7.4) at room temperature for 2 h. Reactions were terminated by filtration through a GF/C filter plate (Corning) presoaked in assay buffer containing 0.1% bovine serum albumin. The sample in the filter plate was washed three times with the assay buffer and eluted with acetonitrile: water (80:20, v/v). The extract solution from the filter plate was diluted with water containing candesartan as an internal standard, and the SGLT2 inhibitor concentration was quantified via LC–MS/MS.
(§2) Nonspecific binding was measured using the crude membrane of nontransfected Expi293 cells. Specific binding was calculated by subtracting nonspecific binding from the binding of hSGLT2-expressing cells. Specific binding was normalized to hSGLT2 protein expression levels, measured via FSEC. The equilibrium dissociation constant (Kd) and maximum number of binding sites (Bmax) were calculated via nonlinear regression in GraphPad Prism 8.4.3. The specific binding of the hSGLT2 mutants was normalized to the Bmax of WT hSGLT2.
(§3) The concentrations of the extract solution from the filter plate and of the cell lysate were quantified using a tandem mass spectrometry QTRAP6500 System (SCIEX) coupled with an ACQUITY UPLC system (Waters) using the internal standard method. Mobile phases A and B used 10 mM of ammonium bicarbonate and acetonitrile, respectively.

[2] = target: T1, wild-type hSGLT2 (membrane fraction of hSGLT2 and MAP17 expressing cells) (Homo sapiens, UniProt P31639); assay: SGLT2 inhibitor-binding assay via affinity selection–mass spectrometry, crude membrane, WT
T1 construct: expressed in transfected cells; host or cells: Expi293 cells, crude membrane fraction
T1 sequence (P31639 1-672): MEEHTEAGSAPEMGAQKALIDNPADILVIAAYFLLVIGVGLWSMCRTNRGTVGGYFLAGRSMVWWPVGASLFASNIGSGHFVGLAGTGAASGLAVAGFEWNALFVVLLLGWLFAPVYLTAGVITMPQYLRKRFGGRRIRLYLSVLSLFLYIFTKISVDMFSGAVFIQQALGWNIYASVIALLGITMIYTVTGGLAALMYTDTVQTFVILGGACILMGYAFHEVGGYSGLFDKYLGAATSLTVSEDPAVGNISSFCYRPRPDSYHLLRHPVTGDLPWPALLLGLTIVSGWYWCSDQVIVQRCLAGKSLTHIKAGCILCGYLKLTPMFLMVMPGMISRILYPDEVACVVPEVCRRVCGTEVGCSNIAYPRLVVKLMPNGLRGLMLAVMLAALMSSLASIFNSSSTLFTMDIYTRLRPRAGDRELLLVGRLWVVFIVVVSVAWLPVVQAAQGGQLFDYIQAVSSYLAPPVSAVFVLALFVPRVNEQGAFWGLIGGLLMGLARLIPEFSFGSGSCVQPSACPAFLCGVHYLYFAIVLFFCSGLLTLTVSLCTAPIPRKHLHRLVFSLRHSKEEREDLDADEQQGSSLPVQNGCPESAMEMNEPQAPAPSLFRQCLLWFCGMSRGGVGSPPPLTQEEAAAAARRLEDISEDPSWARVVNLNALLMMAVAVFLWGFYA
T1 sequence (Q13113 1-114 partner): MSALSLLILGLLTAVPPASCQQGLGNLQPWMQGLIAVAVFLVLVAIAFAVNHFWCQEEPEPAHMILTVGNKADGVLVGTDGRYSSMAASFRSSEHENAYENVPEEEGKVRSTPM
Protocol: as §1, §2, §3

SGLT1 and SGLT2 = conditions: cited from earlier work; for subtype specificity of inhibition (SGLT1 vs SGLT2): in words
hSGLT2 S74A = target: T2, hSGLT2 S74A (Homo sapiens, UniProt P31639, S74A); format: binding; conditions: S74A mutant
T2 construct: expressed in transfected cells; host or cells: Expi293 cells, crude membrane fraction
T2 sequence (P31639 whole entry S74A, one chain of several): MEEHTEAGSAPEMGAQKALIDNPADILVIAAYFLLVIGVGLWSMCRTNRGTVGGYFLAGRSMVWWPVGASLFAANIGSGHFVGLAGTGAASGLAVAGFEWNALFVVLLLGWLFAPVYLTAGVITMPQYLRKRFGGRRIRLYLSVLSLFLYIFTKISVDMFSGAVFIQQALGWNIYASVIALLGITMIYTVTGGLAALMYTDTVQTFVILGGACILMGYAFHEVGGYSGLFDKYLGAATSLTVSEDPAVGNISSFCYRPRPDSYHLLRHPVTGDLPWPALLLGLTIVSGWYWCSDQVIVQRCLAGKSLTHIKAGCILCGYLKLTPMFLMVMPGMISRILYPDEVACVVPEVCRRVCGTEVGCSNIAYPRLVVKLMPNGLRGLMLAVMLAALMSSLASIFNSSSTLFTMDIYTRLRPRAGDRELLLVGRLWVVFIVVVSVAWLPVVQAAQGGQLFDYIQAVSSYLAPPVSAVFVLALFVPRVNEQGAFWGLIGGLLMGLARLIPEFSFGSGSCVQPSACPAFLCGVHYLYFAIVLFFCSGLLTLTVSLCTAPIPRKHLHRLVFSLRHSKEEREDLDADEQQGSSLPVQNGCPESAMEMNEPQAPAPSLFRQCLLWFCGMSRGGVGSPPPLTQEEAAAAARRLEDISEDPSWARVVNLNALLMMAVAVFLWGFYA
Excerpt: (§4) hSGLT2 complementary DNA and human MAP17 cDNA were synthesized and codon-optimized for expression in human cell lines. Both cDNAs were cloned into the pcDNA3.4 vector. The hSGLT2 sequence was fused with an N-terminal signal sequence from human trypsinogen 1, a His10 tag, and sfGFP, followed by a human rhinovirus 3C protease (HRV3C protease) recognition site. Point mutations were introduced into this construct using site-directed mutagenesis. These plasmids were utilized for all experimental procedures conducted in this study.
To examine the inhibition of binding to the crude membrane, mammalian Expi293 cells were co-transfected with the hMAP17 and hSGLT2 plasmids, as described. The cells were collected and disrupted by sonication in a hypotonic buffer (50 mM HEPES–NaOH (pH 7.5), 10 mM KCl and protease inhibitor cocktail) or Na^+-free hypotonic buffer (50 mM Tris–HCl (pH 7.5), 10 mM KCl and protease inhibitor cocktail). The cell debris were removed by centrifugation (2,000g, 5 min, 4 °C). The membrane fraction was collected by ultracentrifugation (112,000g, 30 min, 4 °C) and stored at −80 °C before use. […] The extract solution from the filter plate was diluted with water containing candesartan as an internal standard, and the SGLT2 inhibitor concentration was quantified via LC–MS/MS.
as §2, with “The specific binding of the hSGLT2 mutants was normalized to the Bmax of WT hSGLT2.” left out
The concentrations of the extract solution from the filter plate and of the cell lysate were quantified using a tandem mass spectrometry QTRAP6500 System (SCIEX) coupled with an ACQUITY UPLC system (Waters) using the internal standard method. […]

hSGLT2 D201A = target: T3, hSGLT2 D201A (Homo sapiens, UniProt P31639, D201A); assay: SGLT2 inhibitor-binding assay (AS-MS), crude membrane, D201A mutant; set-up: expressed in transfected cells; host or cells: Expi293 cells, crude membrane fraction; conditions: D201A mutant
T3 sequence (P31639 1-672 D201A): T1 sequence (P31639 1-672) with D201A
T3 sequence (Q13113 1-114 partner): T1 sequence (Q13113 1-114 partner)
Excerpt: as §4
To examine the inhibition of binding to the crude membrane, mammalian Expi293 cells were co-transfected with the hMAP17 and hSGLT2 plasmids, as described. […] The extract solution from the filter plate was diluted with water containing candesartan as an internal standard, and the SGLT2 inhibitor concentration was quantified via LC–MS/MS.
as §2, with “The specific binding of the hSGLT2 mutants was normalized to the Bmax of WT hSGLT2.” left out

hSGLT2 V95I = test system: hSGLT2 V95I; set-up: method as in PMID 34880493; conditions: cited from earlier work
SGLT2 = test system: SGLT2; set-up: method as in Hummel et al., Am. J. Physiol., Cell Physiol., 2011; conditions: authors' rebuttal in peer review file; ref Hummel et al., Am. J. Physiol., Cell Physiol., 2011; cited from earlier work
SGLT1 T395A = test system: SGLT1 T395A; set-up: method as in PMID 30532032; conditions: replacement of T395 with Ala at the Na3 site; cited from earlier work

## CCOc1ccc(Cc2cc([C@@H]3O[C@H](CO)[C@@H](O)[C@H](O)[C@H]3O)ccc2Cl)cc1 [Dapagliflozin]
[1]; 10 nM dapagliflozin
  Binding (% of hSGLT2): 2.53 % of hSGLT2 and 3.518 % of hSGLT2 and 3.481 % of hSGLT2
[2]; 10 nM dapagliflozin
  Binding (% of hSGLT2): 83.4507 % of hSGLT2 and 95.0704 % of hSGLT2 and 121.479 % of hSGLT2
SGLT1 and SGLT2
  fold difference in inhibition between SGLT1 and SGLT2: more than 1,000 fold
  subtype specificity of inhibition (SGLT1 vs SGLT2): SGLT2-specific inhibition

## CS[C@H]1O[C@@H](c2ccc(C)c(Cc3ccc(CCCC(=O)NC(C)(C)C(=O)NCCN(C)C)cc3)c2)[C@H](O)[C@@H](O)[C@@H]1O [LX-2761]
SGLT1 and SGLT2
  subtype specificity of inhibition (SGLT1 vs SGLT2): dual inhibitors

## O=C(CCc1ccc(O)cc1)c1c(O)cc(O)cc1O [Phloretin]
hSGLT2 S74A
  phloretin binding (in words): not
[2]; WT
  phloretin binding (in words): binds as effectively as phlorizin
[2]; phloretin, WT, mean ± SEM n=4
  Bmax: 51.7 ± 3.46 pmol/mg-protein
  Kd: 12000 ± 1900 nM
hSGLT2 D201A
  phloretin binding (in words): not

## CCOc1ccc(Cc2cc([C@@H]3O[C@H](SC)[C@@H](O)[C@H](O)[C@H]3O)ccc2Cl)cc1 [Sotagliflozin]
[1]; 50 nM sotagliflozin
  Binding (% of hSGLT2): 19.1195 % of hSGLT2 and 17.8616 % of hSGLT2 and 17.9874 % of hSGLT2
[2]; 50 nM sotagliflozin
  Binding (% of hSGLT2): 96.1006 % of hSGLT2 and 97.9874 % of hSGLT2 and 105.912 % of hSGLT2
SGLT1 and SGLT2
  subtype specificity of inhibition (SGLT1 vs SGLT2): dual inhibitors

## OC[C@H]1O[C@@H](n2cc(Cc3ccc(C4CC4)cc3)c3c(F)cccc32)[C@H](O)[C@@H](O)[C@@H]1O [TA-1887]
[1]; 10 nM TA-1887
  Binding (% of hSGLT2): 13.0351 % of hSGLT2 and 13.9457 % of hSGLT2 and 14.6645 % of hSGLT2
[2]; 10 nM TA-1887
  Binding (% of hSGLT2): 96.8051 % of hSGLT2 and 101.597 % of hSGLT2
[2]; Na(+), mean ± SEM n=3
  Bmax: 4.67 ± 0.49 pmol/mg-protein
  Kd: 115 ± 28 nM
[2]; Na(-), mean ± SEM n=3
  Bmax: 0.705 ± 0.155 pmol/mg-protein
  Kd: 86.4 ± 50 nM
[2]; absence vs presence of Na+
  Bmax in the absence versus the presence of Na+ (in words): partially lower
SGLT1 and SGLT2
  subtype specificity of inhibition (SGLT1 vs SGLT2): SGLT2-specific inhibition

## OC[C@H]1O[C@@H](c2ccc(Cl)c(Cc3ccc(O[C@H]4CCOC4)cc3)c2)[C@H](O)[C@@H](O)[C@@H]1O [empagliflozin]
hSGLT2 V95I
  effect of V95I on inhibitory activity: reduces the inhibitory activity
SGLT1 and SGLT2
  subtype specificity of inhibition (SGLT1 vs SGLT2): SGLT2-specific inhibition

## OC[C@H]1OC(O)[C@H](O)[C@@H](O)[C@@H]1O (stereo partly shown) [glucose]
SGLT2
  Michaelis constant: 5 mM
SGLT1 T395A
  reduction in glucose affinity: more than 30 fold
